The values that follow come from article PMC4503980 (Scientific Reports, 2015).

Common to all, as to format: binding
The target in assay [1] is T1, nNOS-PDZ/PSD-95-PDZ2 interaction (Homo sapiens, UniProt P29475).
T1 construct: nNOS-PDZ (12–130, human); PDZ2 (155-249); made in house; host or cells: E. coli
The experiment in a line: 'indirect' FP assay, Cnskr2 probe / PSD-95-PDZ2 / nNOS-PDZ. Particulars: for activity in indirect FP assay (nNOS-PDZ/PSD-95-PDZ2): up to 500–600 μM, Cy5-Cnskr2 5 nM / PSD-95-PDZ2 3 μM / nNOS-PDZ 5 μM. The source says:
(§1) First we tested a series of 23 fluorescent-labelled C-terminal peptide ligands (Supplementary Table S1) derived from PDZ-interacting proteins in order to find a probe with good activity towards the PSD-95 PDZ domains and no or little activity against nNOS-PDZ (Supplementary Fig. S1). The Cnskr2 probe fulfilled these selectivity criteria and was used to generate saturation curves with PDZ2 and PDZ1-2 of PSD-95 (Fig. 4a). […] Next, fixed concentrations of TAMRA-Cnskr2, PSD-95-PDZ2/1-2, and nNOS-PDZ were applied, corresponding to the conditions at IC50 of the nNOS-PDZ inhibition curve (Fig. 4b) where sensitivity of the assay is greatest. […] Here, we used the Sapk3-peptide as it has the desired high affinity to α1-Syntrophin-PDZ and low affinity to nNOS-PDZ (Supplementary Fig. S1).
(§2) The minor increases in mP at high concentrations, 260-2900 μM, were due to fluorescence artefacts.
(§3) Similar, this assay was established with Syntrophin-PDZ and Sapk3 as probe (Fig. 4d).
(§4) In all cases, the DMSO effect on the assay was tested and found negligible.

For assay [2], the target named is T2, TAMRA-nNOS/PSD-95-PDZ1-2 interaction (Homo sapiens, UniProt P29475+P78352, V36C).
T2 construct: nNOS-PDZ (12–130, human); PDZ1-2 (61-249); made in house; host or cells: E. coli
T2 sequence (P29475 12-130 V36C): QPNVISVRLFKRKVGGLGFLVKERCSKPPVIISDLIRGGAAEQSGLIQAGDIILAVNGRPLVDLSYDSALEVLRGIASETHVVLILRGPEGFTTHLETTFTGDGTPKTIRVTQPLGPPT
T2 sequence (P78352 61-249): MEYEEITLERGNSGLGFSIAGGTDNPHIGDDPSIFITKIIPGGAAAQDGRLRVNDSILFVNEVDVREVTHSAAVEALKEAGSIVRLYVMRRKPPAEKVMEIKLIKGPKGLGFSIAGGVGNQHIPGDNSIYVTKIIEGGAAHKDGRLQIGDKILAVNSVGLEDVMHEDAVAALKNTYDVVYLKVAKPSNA
As to the kind of experiment: 'direct' FP assay, TAMRA-nNOS / PDZ1-2 (saturation and inhibition).
Text: The assay was established by creating a fluorescent version of nNOS-PDZ by TAMRA-labelling nNOS-PDZ via an introduced cysteine residue (V36C).
nNOS-PDZ (12–130, human) and α-Syntrophin-PDZ (82–200, human), both comprising an N-terminal His-tag/FXa-site sequence ([sequence]), were likewise expressed in E. coli and purified by HisTrap chromatography followed by gel-filtration as described in details previously[19]. To make the TAMRA-labelled nNOS-PDZ, mutant nNOS-PDZ (V36C) protein was generated by standard site-directed mutagenesis and characterized as described previously[19]. […]

Assay [3] addresses T3, nNOS-PDZ/PSD-95-PDZ1-2 interaction (Homo sapiens, UniProt P29475).
T3 construct: nNOS-PDZ (12–130, human); PDZ1-2 (61-249); made in house; host or cells: E. coli
As to the kind of experiment: 'indirect' FP assay, Cnskr2 probe / PSD-95-PDZ1-2 / nNOS-PDZ.
Text: as §1, §2, §3, §4

The target of another assay is T4, PDZ3 of PSD-95 (Homo sapiens, UniProt P78352).
T4 construct: PDZ3 (309-401); made in house; host or cells: E. coli BL21-DE3 pLysS
T4 sequence (P78352 309-401): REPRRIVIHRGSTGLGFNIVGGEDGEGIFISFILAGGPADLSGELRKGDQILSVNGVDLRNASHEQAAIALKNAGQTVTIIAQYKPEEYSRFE
The experiment in a line: FP inhibition assay, Cy5-CRIPT probe / PDZ3. The settings on record: concentrations reaching 500–1800 μM; Cy5-CRIPT 50 nM; [PDZ3] = 5 μM. On the procedure:
(§5) Fluorescent probes were made by attaching fluorophores (Cy5) to C-terminal 10- or 11-mer (C10 or C11) peptide ligands representing canonical and natural occurring protein partners (Supplementary Table S1). […] (Fig. 2).
(§6) (b) Cy5-GluN2B as probe (50 nM), [PDZ2] = 6 μM. (c) Cy5-CRIPT as probe (50 nM), [PDZ3] = 5 μM. […] Error bars indicate SEM based on three individual measurements. […]
(§7) Incubation time was 10–15 minutes (room temperature), and the assay was performed in a 1 × TBS buffer (150 mM NaCl, 10 mM Tris, pH 7.4) using black flat-bottom 384-well plates (Corning Life Sciences, NY) and a Safire2 plate-reader (Tecan, Männedorf, Switzerland). […] TAMRA- and Cy5-probes were measured at excitation/emission values of 530/585 nm (bandwidth = 20 nm) and 635/670 nm (bandwidth = 15 nm), respectively. […]
(§8) FP values were fitted to the general equation: Y = Bottom + (Top–Bottom)/[1 + (10^(X-logIC50)*HillSlope)], where X is the logarithmic value of peptide/compound concentration, and Y is the experimental FP values. Competitive inhibition constants, Ki values, were calculated from the IC50 values to quantify affinities between test substance and protein[42]. […]

The target in a further assay is T5, PDZ2 of PSD-95 (Homo sapiens, UniProt P78352).
T5 construct: PDZ2 (155-249); made in house; host or cells: E. coli BL21-DE3 pLysS
T5 sequence (P78352 155-249): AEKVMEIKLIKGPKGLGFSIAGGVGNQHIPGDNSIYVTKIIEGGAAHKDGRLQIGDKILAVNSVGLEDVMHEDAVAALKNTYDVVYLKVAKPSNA
As to the kind of experiment: FP inhibition assay, Cy5-GluN2B probe / PDZ2. The settings on record: concentrations reaching 500–1800 μM; Cy5-GluN2B 50 nM; [PDZ2] = 6 μM. On the procedure: as §5, §6, §7, §8

Assay [4] has as its target T6, α1-Syntrophin-PDZ/nNOS-PDZ interaction (Homo sapiens, UniProt P29475).
T6 construct: nNOS-PDZ (12–130, human); α-Syntrophin-PDZ (82–200, human); made in house; host or cells: E. coli
As to the kind of experiment: 'indirect' FP assay, Cy5-Sapk3 / α-Syntrophin-PDZ / nNOS-PDZ. Particulars: up to 500–600 μM; Cy5-Sapk3 5 nM / α-Syntrophin-PDZ 14 μM / nNOS-PDZ 10 μM.
Text: as §1, §2, §3, §4

T1 sequence (P29475 12-130): as the sequence (P29475 12-130 V36C) above, with C25V counted along it
T6 sequence (P29475 12-130): as the sequence (P29475 12-130 V36C) above, with C25V counted along it
T3 sequence (P29475 12-130): as the sequence (P29475 12-130 V36C) above, with C25V counted along it

With `O=C(O)c1ccc(NCc2cc(Cl)cc(Cl)c2O)cc1O` [ZL006, 4-((3,5-Dichloro-2-hydroxybenzyl)amino)-2-hydroxybenzoic acid], in assay [1] (ZL006 0-2900 μM, TAMRA-Cnskr2 5 nM / PSD-95-PDZ2 […] / nNOS-PDZ 1 μM), the “rise in FP signal (inhibition of nNOS-PDZ/PSD-95-PDZ2)” value is listed as “no rise in FP signal”. Further, in assay [1], the “activity in indirect FP assay (nNOS-PDZ/PSD-95-PDZ2)” value is “no activity”. In addition, the “inhibition of TAMRA-nNOS/PDZ1-2 interaction” value in assay [2] (tested at up to 1200 μM, TAMRA-nNOS 5 nM, PDZ1-2 0.3 μM) is “no activity”. Also, in assay [3] (ZL006 0-2900 μM, TAMRA-Cnskr2 5 nM / PSD-95-PDZ1-2 1 μM / nNOS-PDZ 2.5 μM), the “rise in FP signal (inhibition of nNOS-PDZ/PSD-95-PDZ1-2)” value was “no rise in FP signal”. For the same compound, the “inhibition of probe-PDZ interaction (PDZ3)” value on PDZ3 of PSD-95 is reported as “did not inhibit”. The “inhibition of probe-PDZ interaction (PDZ2)” value against PDZ2 of PSD-95 is “did not inhibit”. Moreover, the “activity in indirect FP assay (α1-Syntrophin-PDZ/nNOS-PDZ)” value in assay [4] is “no activity”.
`Oc1c(Cl)cc(Cl)cc1CNc1ccc2[nH]nnc2c1` [IC87201, 2-((1H-Benzo[d][1–3]triazol-5-ylamino)methyl)-4-6-dichlorophenol]: the “activity in indirect FP assay (nNOS-PDZ/PSD-95-PDZ2)” value in assay [1] is on record as “no activity”. Further, the “inhibition of TAMRA-nNOS/PDZ1-2 interaction” value in assay [2] (up to 7.3 μM (fluorescence artefacts above), data not shown) was “no inhibition”. Besides, the “activity in indirect FP assay (nNOS-PDZ/PSD-95-PDZ1-2)” value in assay [3] (up to 500–600 μM, Cy5-Cnskr2 5 nM / PSD-95-PDZ1-2 1 μM / nNOS-PDZ 5 μM) was “no activity”. Further, the “inhibition of probe-PDZ interaction (PDZ3)” value against PDZ3 of PSD-95 is “did not inhibit”. Also, the “inhibition of probe-PDZ interaction (PDZ2)” value against PDZ2 of PSD-95 is “did not inhibit”. Besides, the “activity in indirect FP assay (α1-Syntrophin-PDZ/nNOS-PDZ)” value in assay [4] was “no activity”.
